Experimental data taken from patent US5688798A, “Pyrimidine compounds” (Hoffmann-La Roche Inc., priority 1995, dated 1997).
Like-named read-outs stand apart in the source and are kept apart here.

Target: T1, dopamine D4 receptor (Homo sapiens, UniProt P21917)
T1 construct: expressed in transfected cells; host or cells: CHO (Chinese Hamster Ovary) cells, D4-CHO, crude membranes
T1 sequence (P21917 1-419): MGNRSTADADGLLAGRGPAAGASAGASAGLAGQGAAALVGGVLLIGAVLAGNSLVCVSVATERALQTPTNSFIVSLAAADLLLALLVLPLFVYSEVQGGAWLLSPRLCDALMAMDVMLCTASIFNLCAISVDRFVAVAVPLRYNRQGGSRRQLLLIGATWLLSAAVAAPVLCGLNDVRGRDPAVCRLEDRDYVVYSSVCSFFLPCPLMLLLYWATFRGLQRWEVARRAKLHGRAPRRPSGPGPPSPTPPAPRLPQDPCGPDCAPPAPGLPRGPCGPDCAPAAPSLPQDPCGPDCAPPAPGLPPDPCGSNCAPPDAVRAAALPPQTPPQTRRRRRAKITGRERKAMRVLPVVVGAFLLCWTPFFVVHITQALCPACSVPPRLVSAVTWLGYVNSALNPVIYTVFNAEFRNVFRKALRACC
Experiment: binding behaviour at the dopamine D4 receptor, [3H]-spiperone displacement in D4-CHO cell membranes
Method: The compounds were characterized by their binding behaviour at the D4 receptor.
CHO cells (Chinese Hamster Ovary) were used in the test. Crude membranes were isolated by ultracentrifugation from D4 -CHO and D2 -CHO cells and were stored at -80° C. After thawing and homogenizing in a buffer solution (50 mM Tris, 1 mM EDTA, 5 mM KCl, 1.5 mM CaCl2, 4 mM MgCl2, pH 7.4) they were incubated at room temperature for 90 minutes with 200 pM [3H]-spiperone and an increasing concentration (1×10^-11 M to 1×10^-4 M) of the test compound. A non-specific binding was established by incubating in the presence of 1×10^-5 M (+)-butaclamol. The unbound radioligand was removed by filtration through a GF/C glass filter and the bound radioactivity was determined by scintillation in a Packard TopCount.
It was determined using :^3 H-spiperone. The calculation of the value was effected with ligand.

[1] = [3H]-spiperone 200 pM, crude membranes of D4-CHO cells, room temperature, 90 minutes, pH 7.4, non-specific binding with 1×10^-5 M (+)-butaclamol, read-out: Affinity to dopamine D4 receptors, Ki

| Ki [1] [nM] | SMILES | Ki [nM] |
| --- | --- | --- |
| 23 | Cc1ncc(CN2CCc3ccc(OCc4ccccc4)cc3C2)c(N)n1 [Example 22, 5-(7-benzyloxy-3,4-dihydro-1H-isoquinolin-2-ylmethyl)-2-methyl-pyrimidin-4-ylamine] | – |
| – | COc1ccc(C2=CCN(Cc3cnc(C)nc3N)CC2)cc1 [Example 17, 5-[4-(4-Methoxy-phenyl)-3,6-dihydro-2H-pyridin-1-ylmethyl]-2-methyl-pyrimidin-4-ylamine] | 5.4 |
| 1.3 | Cc1ncc(CN2CC=C(CCc3ccccc3)CC2)c(N)n1 [Example 28, 2-Methyl-5-(4-phenethyl-3,6-dihydro-2H-pyridin-1-ylmethyl)-pyrimidin-4-ylamine] | – |
| 30 | COc1ccccc1N1CCN(Cc2cnc(N)nc2N)CC1 [Example 41, 5-[4-(2-Methoxy-phenyl)-piperazin-1-ylmethyl]-pyrimidine-2,4-diamine] | – |
| 6.2 | Cc1ncc(CN2CCc3ccc(-c4ccccc4)cc3C2)c(N)n1 [Example 21, 2-Methyl-5-(7-phenyl-3,4-dihydro-1H-isoquinolin-2-ylmethyl)-pyrimidin-4-ylamine] | – |
| 33 | Cc1ncc(CN2CCN(c3ccc(Cl)cc3)CC2)c(N)n1 [Example 3, 5-[4-(4-Chloro-phenyl)-piperazin-1-ylmethyl]-2-methyl-pyrimidin-4-ylamine] | – |
| – | Cc1ncc(CN2CCC3=C(CCCC3)C2)c(N)n1 [Example 24, 5-(3,4,5,6,7,8-Hexahydro-1H-isoquinolin-2-ylmethyl)-2-methyl-pyrimidin-4-ylamine] | 7.8 |
| 0.9 | Cc1ncc(CN2CC=C(/C=C/c3ccccc3)CC2)c(N)n1 [Example 29, (E)-2-Methyl-5-(4-styryl-3,6-dihydro-2H-pyridin-1-ylmethyl)-pyrimidin-4-ylamine] | – |
| 0.4 | Cc1ncc(CN2CCc3cc(-c4ccccc4)ccc3C2)c(N)n1 [Example 19, 2-Methyl-5-(6-phenyl-3,4-dihydro-1H-isoquinolin-2-ylmethyl)-pyrimidin-4-ylamine] | – |
| – | Nc1ncc(CN2CC=C(c3ccccc3)CC2)c(N)n1 [Example 42, 5-(4-Phenyl-3,6-dihydro-2H-pyridin-1-ylmethyl)-pyrimidine-2,4-diamine] | 14 |
| – | Cc1ncc(CN2CC=C(c3ccc(F)cc3)CC2)c(N)n1 [Example 15, 5-[4-(4-Fluoro-phenyl)-3,6-dihydro-2H-pyridin-1-ylmethyl]-2-methyl-pyrimidin-4-ylamine] | 9.3 |
| – | Cc1ncc(CN2CC=C(c3ccc(Cl)cc3)CC2)c(N)n1 [Example 16, 5-[4-(4-chloro-phenyl)-3,6-dihydro-2H-pyridin-1-ylmethyl]-2-methyl-pyrimidin-4-ylamine] | 4.7 |
| – | Cc1ncc(CN2CC=C(c3ccccc3)CC2)c(N)n1 [Example 14, 5-(4-Phenyl-3,6-dihydro-2H-pyridin-1-ylmethyl)-2-methyl-pyrimidin-4-ylamine] | 8.3 |
| 14 | CCCc1ncc(CN2CCN(c3ccccc3OC)CC2)c(N)n1 [Example 33, 5-[4-(2-Methoxy-phenyl)-piperazin-1-ylmethyl]-2-propyl-pyrimidin-4-ylamine] | – |
| 28 | Cc1ncc(CN2CCN(c3cccc(Cl)c3)CC2)c(N)n1 [Example 7, 5-[4-(3-chloro-phenyl)-piperazin-1-ylmethyl]-2-methyl-pyrimidin-4-ylamine] | – |
